Reference: US20100251436A1, “METHOD FOR GROWING SUGARCANE” (SYNGENTA CROP PROTECTION, INC., priority 2007, published 2010)

System: sugar cane Variety RB 86-7515
Test: Greenhouse pot test of formulated agrochemicals on vigour (tillers, plant height, leaf width, culm diameter)
Conditions: for number of tillers in comparison with the control / plant height in comparison with the control: greenhouse, rate of the respective example
Excerpt: 1) carretel with one bud treated with abamectin 2) carretel with one bud treated with abamectin+15% v/v of polymer 3) stalk with 3 buds untreated 4) carretel with one bud untreated 5) carretel with one bud untreated+15% v/v of polymer 6) stalk with 3 buds treated with abamectin.
Twenty 1 L pots were filled with 16 L of clay soil, 1.6 L of sand and 8 g of nitrogen, 28 g of phosphorus (P2O5) and 16 g of potassium (K2O). Six carretels of 4 cm length with only one bud were planted in each pot (treatments 1, 2, 4 and 5). Two stalks with three buds were planted in each control pot (treatments 3 and 6) to simulate conventional planting. A layer of 3 cm of soil was used to cover the carretels. […] The stalks were treated simulating a furrow application at 100 L.ha^−1 of slurry. Experimental design adopted was randomized complete block with four replications. The pots were maintained with adequate moisture during the test. Evaluations of: plant height, leaf width, culm diameter and number of tillers were done at 20, 30 and 42 days after planting.

CN/C(=N\[N+](=O)[O-])NCc1cnc(Cl)s1 [Clothianidin, clothianidin]
number of tillers in comparison with the control (result in words): increased | plant height in comparison with the control (result in words): slight reduction

N#Cc1nn(-c2c(Cl)cc(C(F)(F)F)cc2Cl)c(N)c1[S+]([O-])C(F)(F)F (centres unmarked) [Fipronil, fipronil]
number of tillers in comparison with the control (result in words): increased | plant height in comparison with the control (result in words): decreased

O=[N+]([O-])NC1=NCCN1Cc1ccc(Cl)nc1 [Imidacloprid]
number of tillers in comparison with the control (result in words): increase

CN1COCN(Cc2cnc(Cl)s2)/C1=N\[N+](=O)[O-] [Thiamethoxam, thiamethoxam]
number of tillers in comparison with the control (result in words): increased | plant height in comparison with the control (result in words): reduced | increase in "quality" (result in words, not apparent from the measured parameters): greater than the other treatments

abamectin
Tillers (abamectin 100 g ai/ha, carretel with one bud, dipped in slurry 3 min, 42 days after planting): 14 number | number of tillers in comparison with the control (result in words): increase | plant height in comparison with the control (result in words): decrease
